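Tested at 5 concentrations; 48 h exposure; 96-well plates; endpoints linearly interpolated, else capped at highest concentration. GI50 = concentration required for 50% inhibition of growth.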 Activity calls are given as the source filed them. Rule as the data show it: active = GI50 up to about 1.1 µM and inactive = higher.
How the values were obtained:
Test in all cases: NCI tumour cell line growth inhibition, 48 h
[1] = system: HCC 2998
[2] = system: TK-10
[3] = system: SNB-19
[4] = system: T47D
[5] = system: HT-29
[6] = system: OVCAR-3
[7] = system: K562
[8] = system: UACC-257
[9] = system: HL-60
[10] = system: Hs-578T
[11] = system: HOP-62
[12] = system: NCI-H226
[13] = system: COLO 205
[14] = system: SF-295
[15] = system: SN12C
[16] = system: CCRF-CEM
[17] = system: MDA-N
[18] = system: NCI-H23
[19] = system: DU-145
[20] = system: UACC-62
[21] = system: MCF7
[22] = system: Malme-3M
[23] = system: BT-549
[24] = system: SK-MEL-5
[25] = system: SK-MEL-28
[26] = system: 786-0
[27] = system: SK-MEL-2
[28] = system: SF-539
[29] = system: PC-3
[30] = system: RXF 393
[31] = system: MOLT-4
[32] = system: HOP-92
[33] = system: ACHN
[34] = system: IGROV-1
[35] = system: MDA-MB-231
[36] = system: U-251
[37] = system: HCT-15
[38] = system: SK-OV-3
[39] = system: M14
[40] = system: RPMI-8226
[41] = system: LOX IMVI
[42] = system: OVCAR-5
[43] = system: MDA-MB-435
[44] = system: HCT-116
[45] = system: SF-268
[46] = system: NCI/ADR-RES
[47] = system: NCI-H460
[48] = system: A498
[49] = system: A549
[50] = system: EKVX
[51] = system: SW-620
[52] = system: KM12
[53] = system: UO-31
[54] = system: OVCAR-8
[55] = system: NCI-H522
[56] = system: CAKI-1
[57] = system: OVCAR-4
[58] = system: SNB-75
[59] = system: SR

Measured: GI50

N=C(N)SCc1cc(Cl)cc(Cl)c1O
20.1 µM: [37]
inactive: [1] 17.7 µM | [2] 18.8 µM | [3] 18.2 µM | [4] 20.9 µM | [5] 16 µM | [6] 17.2 µM | [7] 19.8 µM | [8] 16.9 µM | [9] 3.21 µM | [10] 20.4 µM | [11] 18.8 µM | [12] 20.3 µM | [13] 17.7 µM | [14] 25.5 µM | [15] 17.4 µM | [16] 13.7 µM | [17] 16.4 µM | [18] 19 µM | [19] 17.6 µM | [20] 17.3 µM | [21] 25.2 µM | [22] 21.6 µM | [23] 18.7 µM | [24] 16.6 µM | [25] 22.6 µM | [26] 18 µM | [27] 18.2 µM | [28] 3.58 µM | [29] 19.3 µM | [30] 19.9 µM | [31] 24.4 µM | [32] 15.7 µM | [33] 19.5 µM | [34] 18.5 µM | [35] 15.1 µM | [36] 15.7 µM | [38] 36.1 µM | [39] 16.6 µM | [40] 19.8 µM | [41] 18.5 µM | [42] 16.3 µM | [43] 19.7 µM | [44] 16.3 µM | [45] 21.8 µM | [46] 26.2 µM | [47] 18.1 µM | [48] 22.3 µM | [49] 20.7 µM | [50] 15.2 µM | [51] 20.7 µM | [52] 18.4 µM | [53] 15.5 µM | [54] 18.3 µM | [55] 15.9 µM | [56] 18.6 µM | [57] 23.3 µM

CSc1nnc(SC)nn1
inactive: [2] 12.6 µM | [3] 20.7 µM | [4] 2.76 µM | [5] 18.9 µM | [6] 16.2 µM | [7] 8.04 µM | [8] 16.6 µM | [9] 3.65 µM | [10] 27.2 µM | [11] 15.3 µM | [12] 32.4 µM | [58] 17.4 µM | [13] 18.7 µM | [14] 18.1 µM | [15] 21.1 µM | [16] 1.81 µM | [17] 16.1 µM | [18] 20.8 µM | [19] 20.4 µM | [20] 18.2 µM | [21] 17 µM | [22] 13 µM | [23] 16 µM | [24] 15.8 µM | [26] 13.8 µM | [28] 18.2 µM | [29] 18.5 µM | [30] 16.7 µM | [32] 3.84 µM | [33] 16.8 µM | [34] 16.3 µM | [35] 18.2 µM | [36] 20.6 µM | [38] 21.4 µM | [39] 15.5 µM | [40] 13.3 µM | [41] 19.6 µM | [42] 18.1 µM | [43] 16.9 µM | [44] 11 µM | [45] 15.9 µM | [46] 16.8 µM | [47] 18.2 µM | [48] > 100 µM | [49] 20.9 µM | [50] 16.6 µM | [51] 17.2 µM | [52] 15.3 µM | [53] 15.5 µM | [54] 18.6 µM | [55] 16.4 µM | [56] 16.9 µM | [57] 18.5 µM
active: [31] 0.438 µM
19.2 µM: [37]

CC1(C)N=C(N)N=C(N)N1c1cccc(OCc2cccc(N)c2)c1
> 100 µM: [37]
inactive: [2] > 52.1 µM | [3] 23.8 µM | [4] > 100 µM | [5] 16.9 µM | [6] 39.6 µM | [7] 3.17 µM | [8] 6.14 µM | [9] 5.61 µM | [10] > 100 µM | [11] > 91.6 µM | [12] > 100 µM | [58] > 100 µM | [13] 37.8 µM | [14] > 79.6 µM | [15] 19 µM | [16] 4.85 µM | [17] 6.1 µM | [18] 14.2 µM | [19] > 86.3 µM | [20] 6.11 µM | [21] 39.9 µM | [22] > 71.9 µM | [23] > 65.9 µM | [24] 12.4 µM | [25] > 100 µM | [26] 10.9 µM | [27] > 100 µM | [28] 19.9 µM | [29] > 38.7 µM | [30] 41.9 µM | [31] 8.02 µM | [32] > 49 µM | [33] > 100 µM | [34] 3.31 µM | [35] > 71.4 µM | [36] 14.7 µM | [38] > 100 µM | [39] 58.5 µM | [40] 56.1 µM | [41] 9.46 µM | [42] 26.9 µM | [43] 16.4 µM | [44] 13.3 µM | [45] 14.3 µM | [46] > 100 µM | [47] 3.87 µM | [48] > 93.1 µM | [49] 7.21 µM | [50] > 88.3 µM | [51] > 100 µM | [52] 49.9 µM | [53] > 100 µM | [54] > 83 µM | [55] 26.4 µM | [56] > 100 µM | [57] > 69.5 µM

CCNC(=O)Nc1ccccn1
inactive: [1] > 100 µM | [2] > 100 µM | [3] > 100 µM | [4] > 100 µM | [5] > 100 µM | [6] > 100 µM | [7] > 100 µM | [8] > 100 µM | [9] > 100 µM | [10] > 100 µM | [11] > 100 µM | [12] > 100 µM | [58] 84.5 µM | [13] > 100 µM | [14] > 100 µM | [15] > 100 µM | [16] > 100 µM | [17] > 100 µM | [18] > 100 µM | [19] > 100 µM | [20] > 100 µM | [21] > 100 µM | [22] > 100 µM | [23] > 100 µM | [24] > 100 µM | [25] > 100 µM | [59] > 100 µM | [26] > 100 µM | [28] > 100 µM | [29] > 100 µM | [30] > 100 µM | [31] > 100 µM | [32] > 100 µM | [33] > 100 µM | [34] > 100 µM | [35] > 100 µM | [36] > 100 µM | [38] > 100 µM | [39] > 100 µM | [42] > 100 µM | [43] > 100 µM | [44] > 100 µM | [45] > 100 µM | [47] > 100 µM | [48] > 100 µM | [49] > 100 µM | [50] > 100 µM | [51] > 100 µM | [52] > 100 µM | [53] > 100 µM | [54] > 100 µM | [55] > 100 µM | [56] > 100 µM | [57] > 100 µM

Reference: ChEMBL document CHEMBL1201862, “PubChem BioAssay data set” (2004)
